Experimental data: ChEMBL document CHEMBL3297706, “Design, synthesis and evaluation of phenethylaminoheterocycles as K(v)1.5 inhibitors” (Bioorg Med Chem Lett, 2014)
The source made the active and inactive calls. No cut-off for these calls is given here.

Assays:
[1] = target: T1, Potassium voltage-gated channel subfamily A member 5 (Homo sapiens, UniProt P22460); assay: Inhibition of human Kv1.5 expressed in mouse L929 cells assessed as inhibition of current; type: cell-based
hERG (KCNH2) = hERG (KCNH2) (Homo sapiens, UniProt Q12809); assay: Inhibition of human ERG at 10 uM
[2] = Half life in Sprague-Dawley rat at 10 umol/kg, via carotid artery by LC-MS method; type: ADME, organism-based; conditions: in vivo
[3] = Clearance in Sprague-Dawley rat at 10 umol/kg, via carotid artery by LC-MS method; type: ADME, organism-based; conditions: in vivo
[4] = Volume of distribution at steady state in Sprague-Dawley rat at 10 umol/kg, via carotid artery by LC-MS method; type: ADME, organism-based; conditions: in vivo, read-out: Vdss
[5] = target: T1, Potassium voltage-gated channel subfamily A member 5; assay: Inhibition of human Kv1.5 expressed in mouse L929 cells assessed as inhibition of current at 0.3 uM; type: cell-based
[6] = Permeability across apical to basolateral side in human Caco2 cells; type: ADME, cell-based; conditions: Caco-2, read-out: permeability
[7] = Permeability of the compound by PAMPA; type: ADME; conditions: read-out: permeability
Plasma [8] = assay: Plasma concentration in rabbit at 10 mg/kg; type: ADME, organism-based, Oryctolagus cuniculus; design: dose 10 mg/kg; conditions: in vivo
Oryctolagus cuniculus [9] = assay: Anti-atrial fibrillation in rabbit assessed as atrial effective refractory period prolongation at 10 mg/kg; type: functional, Cardiac atrium
Oryctolagus cuniculus [10] = assay: Anti-atrial fibrillation in rabbit assessed as ventricular effective refractory period prolongation at 10 mg/kg; type: functional
[11] = Plasma protein binding in rabbit; type: ADME, cell-free, Oryctolagus cuniculus; conditions: read-out: PPB (converted)
Oryctolagus cuniculus [12] = assay: Anti-atrial fibrillation in rabbit assessed as atrial effective refractory period prolongation at 1 mg/kg; type: functional, Cardiac atrium
Plasma [13] = assay: Plasma concentration in rabbit at 1 mg/kg; type: ADME, organism-based, Oryctolagus cuniculus; design: dose 1 mg/kg; conditions: in vivo
Oryctolagus cuniculus [14] = species on record: Oryctolagus cuniculus; assay: Anti-atrial fibrillation in rabbit assessed as atrial effective refractory period prolongation; type: functional, organism-based; conditions: Cardiac atrium
Oryctolagus cuniculus [15] = assay: Anti-atrial fibrillation in rabbit assessed as atrial effective refractory period prolongation at 3 mg/kg; type: functional, Cardiac atrium
Plasma [16] = assay: Plasma concentration in rabbit at 3 mg/kg; type: ADME, organism-based, Oryctolagus cuniculus; design: dose 3 mg/kg; conditions: in vivo
Oryctolagus cuniculus [17] = assay: Anti-atrial fibrillation in rabbit assessed as decrease in blood pressure at 1 mg/kg; type: functional
Oryctolagus cuniculus [18] = assay: Anti-atrial fibrillation in rabbit assessed as decrease in blood pressure at 3 mg/kg; type: functional
Oryctolagus cuniculus [19] = assay: Anti-atrial fibrillation in rabbit assessed as increase in heart rate at 1 mg/kg; type: functional
Oryctolagus cuniculus [20] = assay: Anti-atrial fibrillation in rabbit assessed as increase in heart rate at 3 mg/kg; type: functional

T1 sequence (P22460 whole entry): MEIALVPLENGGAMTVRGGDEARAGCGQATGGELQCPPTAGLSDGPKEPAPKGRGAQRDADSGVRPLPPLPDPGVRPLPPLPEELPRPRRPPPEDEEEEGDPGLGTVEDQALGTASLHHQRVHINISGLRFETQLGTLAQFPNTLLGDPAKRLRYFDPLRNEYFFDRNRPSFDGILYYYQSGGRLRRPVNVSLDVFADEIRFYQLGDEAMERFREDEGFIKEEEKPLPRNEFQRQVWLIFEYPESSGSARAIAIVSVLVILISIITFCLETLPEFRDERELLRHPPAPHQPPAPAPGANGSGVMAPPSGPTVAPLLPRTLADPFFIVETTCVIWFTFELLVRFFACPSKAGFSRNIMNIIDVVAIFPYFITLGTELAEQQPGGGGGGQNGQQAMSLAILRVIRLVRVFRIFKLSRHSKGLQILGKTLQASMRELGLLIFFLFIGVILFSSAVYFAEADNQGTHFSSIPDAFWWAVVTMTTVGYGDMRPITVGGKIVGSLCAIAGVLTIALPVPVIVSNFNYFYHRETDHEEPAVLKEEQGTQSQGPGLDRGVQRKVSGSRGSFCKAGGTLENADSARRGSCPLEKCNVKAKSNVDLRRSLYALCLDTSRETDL
hERG (KCNH2), sequence (Q12809 whole entry): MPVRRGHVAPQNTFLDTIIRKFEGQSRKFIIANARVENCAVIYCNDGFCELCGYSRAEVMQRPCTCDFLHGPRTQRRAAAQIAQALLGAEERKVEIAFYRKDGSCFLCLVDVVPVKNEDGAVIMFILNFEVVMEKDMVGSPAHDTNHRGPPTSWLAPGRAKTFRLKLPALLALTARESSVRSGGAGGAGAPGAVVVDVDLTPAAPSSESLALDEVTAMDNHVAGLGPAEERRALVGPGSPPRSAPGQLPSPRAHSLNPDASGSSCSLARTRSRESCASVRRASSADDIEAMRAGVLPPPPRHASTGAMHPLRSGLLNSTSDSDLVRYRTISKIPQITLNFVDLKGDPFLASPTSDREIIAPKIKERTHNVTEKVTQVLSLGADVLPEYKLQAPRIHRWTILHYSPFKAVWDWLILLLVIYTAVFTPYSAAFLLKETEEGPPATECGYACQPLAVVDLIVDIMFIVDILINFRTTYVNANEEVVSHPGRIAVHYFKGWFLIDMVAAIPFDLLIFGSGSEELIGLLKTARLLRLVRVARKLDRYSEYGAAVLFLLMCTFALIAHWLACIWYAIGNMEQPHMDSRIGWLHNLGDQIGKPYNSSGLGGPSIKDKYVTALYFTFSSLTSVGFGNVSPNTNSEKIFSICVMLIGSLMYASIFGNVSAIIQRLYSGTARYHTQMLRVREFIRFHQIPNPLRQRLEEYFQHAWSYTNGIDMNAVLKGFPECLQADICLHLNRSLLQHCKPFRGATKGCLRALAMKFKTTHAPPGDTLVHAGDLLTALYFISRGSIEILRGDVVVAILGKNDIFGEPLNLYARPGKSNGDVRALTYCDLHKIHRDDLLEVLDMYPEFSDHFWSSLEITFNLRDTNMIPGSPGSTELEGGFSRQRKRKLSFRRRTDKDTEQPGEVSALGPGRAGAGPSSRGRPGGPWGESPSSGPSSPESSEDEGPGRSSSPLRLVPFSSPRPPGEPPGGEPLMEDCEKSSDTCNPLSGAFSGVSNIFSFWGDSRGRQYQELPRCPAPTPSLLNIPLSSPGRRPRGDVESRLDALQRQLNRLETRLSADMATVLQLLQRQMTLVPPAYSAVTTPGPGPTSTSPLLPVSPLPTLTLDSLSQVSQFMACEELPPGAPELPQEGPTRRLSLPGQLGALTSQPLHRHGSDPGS

SMILES | IC50 [1] | inhibition at 10 µM (hERG (KCNH2)) | half-life [2] | clearance [3] | Vd [4] | other results
COc1cccc2ccnc(NCC(C)(C)c3ccccc3)c12 | 22 nM | 99% | 1.8 h | 124 mL/min/kg | 14 L/kg | 
CCNC(=O)O[C@H]1CC[C@](CNc2nn(C)c3cccc(OC)c23)(c2ccccc2)CC1 | 88 nM | 54% | 1.4 h | 8 mL/min/kg | 0.6 L/kg | 
COc1cccc2ncnc(NCC(C)(C)c3ccccc3)c12 | 118 nM | 90% |  |  |  | 
COc1cccc2nc(Cl)nc(NCC(C)(C)c3ccccc3)c12 | 73 nM | 90% |  |  |  | 
COc1cccc2[nH]nc(NCC(C)(C)c3ccccc3)c12 |  |  |  |  |  | inhibition [5]: 37%; Papp A→B [6]: 9.4 ×10⁻⁶ cm/s
COc1ccc2onc(NCC(C)(C)c3ccccc3)c2c1 |  |  |  |  |  | inhibition [5]: 37%
CC(C)(CNc1noc2ccccc12)c1ccccc1 | 784 nM |  |  |  |  | Papp A→B [6]: 11.6 ×10⁻⁶ cm/s
COc1cccc2c1c(NCC(C)(C)c1ccccc1)nn2C(C)C |  |  |  |  |  | inhibition [5]: 42%
COc1cccc2onc(N(C)CC(C)(C)c3ccccc3)c12 | 187 nM |  |  |  |  | 
COc1cccc2c1C(NCC(C)(C)c1ccccc1)=NC2=O | 84 nM | 46% | 0.8 h | 35 mL/min/kg | 1.1 L/kg | Papp A→B [6]: 27 ×10⁻⁶ cm/s; Papp [7]: 79 ×10⁻⁶ cm/s
CC(C)(CNc1noc2cccc(Cl)c12)c1ccccc1 |  |  |  |  |  | inhibition [5]: 33%
COc1cccc2nc(O)nc(NCC(C)(C)c3ccccc3)c12 | 23 nM | 50% |  |  |  | Papp [7]: 81.6 ×10⁻⁶ cm/s
COc1cccc2snc(NCC(C)(C)c3ccccc3)c12 | 25 nM | 68% | 1.8 h | 28 mL/min/kg | 3.9 L/kg | 
CCc1cccc2onc(NCC(C)(C)c3ccccc3)c12 | 219 nM |  |  |  |  | 
COc1cccc2oc(=O)nc(NCC(C)(C)c3ccccc3)c12 | 197 nM | 66% | 0.8 h | 10 mL/min/kg | 0.7 L/kg | Papp [7]: 69.5 ×10⁻⁶ cm/s
COc1cccc2onc(NCC(C)(C)c3ccccc3)c12 | 43 nM |  | 2.4 h | 22 mL/min/kg | 3.7 L/kg | concentration (Plasma [8]): 8200 nM; Activity (Oryctolagus cuniculus [9]): <5%; Activity (Oryctolagus cuniculus [10]): <5%; fraction unbound [11]: < 0.001
COc1ccc2c(NCC(C)(C)c3ccccc3)noc2c1 |  |  |  |  |  | inhibition [5]: 21%; Papp A→B [6]: 3.6 ×10⁻⁶ cm/s
CCNC(=O)O[C@H]1CC[C@](CNc2n[nH]c3cccc(OC)c23)(c2ccccc2)CC1 | 138 nM | 52% | 1.3 h | 21 mL/min/kg | 1.4 L/kg | Papp [7]: 67 ×10⁻⁶ cm/s; Activity (Oryctolagus cuniculus [10]): inactive; Activity (Oryctolagus cuniculus [12]): 15%; concentration (Plasma [13]): 700 nM; fraction unbound [11]: 0.003; Activity (Oryctolagus cuniculus [14]): Dose-dependent effect; Activity (Oryctolagus cuniculus [15]): 22%; concentration (Plasma [16]): 2400 nM; inhibition in vivo at 1 mg/kg (Oryctolagus cuniculus [17]): 7%; inhibition in vivo at 3 mg/kg (Oryctolagus cuniculus [18]): 17%; Activity (Oryctolagus cuniculus [19]): 5%; Activity (Oryctolagus cuniculus [20]): 16%
CC(C)(CNc1noc2cccc(O)c12)c1ccccc1 | 262 nM |  |  |  |  | 
COc1cccc2c1c(NCC(C)(C)c1ccccc1)nn2C | 198 nM | 69% | 2.1 h | 12 mL/min/kg | 1.7 L/kg | Papp A→B [6]: 2.3 ×10⁻⁶ cm/s; Activity (Oryctolagus cuniculus [12]): 6%; concentration (Plasma [13]): 300 nM; fraction unbound [11]: < 0.001
